Measurements as given in patent US9469650B2, “Melampomagnolide B derivatives” (BOARD OF TRUSTEES OF THE UNIVERSITY OF ARKANSAS, priority 2013, dated 2016).
Read-outs that look alike come from different tables or passages of the source.

Assays:
NCI-H460 = test: panel of 60 human tumor cell lines, growth inhibition (Non-Small Cell Lung Cancer); details: Homo sapiens
SF-539 = test: panel of 60 human tumor cell lines, growth inhibition (CNS Cancer); details: Homo sapiens
COLO 205 = test: panel of 60 human tumor cell lines, growth inhibition (Colon Cancer); details: Homo sapiens
NCI-H23 = test: panel of 60 human tumor cell lines, growth inhibition (Non-Small Cell Lung Cancer); details: Homo sapiens
HCT-15 = test: panel of 60 human tumor cell lines, growth inhibition (Colon Cancer); details: Homo sapiens
ACHN = test: panel of 60 human tumor cell lines, growth inhibition (Renal Cancer); details: Homo sapiens
SN12C = test: as above; details: Homo sapiens
PC-3 = test: panel of 60 human tumor cell lines, growth inhibition (Prostate Cancer); details: Homo sapiens
NCI-H522 = test: panel of 60 human tumor cell lines, growth inhibition (Non-Small Cell Lung Cancer); details: Homo sapiens
CCRF-CEM = test: panel of 60 human tumor cell lines, growth inhibition (Leukemia); details: Homo sapiens
HT29 = test: panel of 60 human tumor cell lines, growth inhibition (Colon Cancer); details: for Percent Growth: HT29
MDA-MB-231/ATCC = test: panel of 60 human tumor cell lines, growth inhibition (Breast Cancer); details: Homo sapiens
M14 = test: panel of 60 human tumor cell lines, growth inhibition (Melanoma); details: Homo sapiens
HOP-92 = test: panel of 60 human tumor cell lines, growth inhibition (Non-Small Cell Lung Cancer); details: Homo sapiens
NCI-H226 = test: as above; details: Homo sapiens
MDA-MB-435 = test: panel of 60 human tumor cell lines, growth inhibition (Melanoma); details: Homo sapiens

`C=C1C(=O)O[C@H]2[C@H]1CC/C(COC(=O)OCCN(C)C)=C\CC[C@@]1(C)O[C@@H]21` [JVM 2-35] was tested, and the GI50 (NCI-H460; NCI-H460) was 20.7 µM, the CC50 (NCI-H460; NCI-H460, read-out: LC50) was > 100 µM and the IC (TGI) (NCI-H460; NCI-H460, read-out: TGI) was 52.1 µM. For the same compound, the GI50 (SF-539; SF-539) was 3.86 µM, the CC50 (SF-539; SF-539, read-out: LC50) was 41.3 µM and the IC (TGI) (SF-539; SF-539, read-out: TGI) was 14.7 µM. It also gave a GI50 (COLO 205; COLO 205) of 2.19 µM, a CC50 (COLO 205; COLO 205, read-out: LC50) of 18.6 µM and an IC (TGI) (COLO 205; COLO 205, read-out: TGI) of 5.46 µM. For the same compound, the GI50 (NCI-H23; NCI-H23) was 16 µM, the CC50 (NCI-H23; NCI-H23, read-out: LC50) was 91 µM and the IC (TGI) (NCI-H23; NCI-H23, read-out: TGI) was 38.2 µM. The GI50 (HCT-15; HCT-15) was 2.78 µM, the CC50 (HCT-15; HCT-15, read-out: LC50) was 44.3 µM and the IC (TGI) (HCT-15; HCT-15, read-out: TGI) was 12.8 µM. It also gave a GI50 (ACHN) of 3.26 µM, a CC50 (ACHN; read-out: LC50) of 40.9 µM and an IC (TGI) (ACHN; read-out: TGI) of 13.4 µM. For the same compound, the GI50 (SN12C) was 13.2 µM, the CC50 (SN12C; read-out: LC50) was > 100 µM and the IC (TGI) (SN12C; read-out: TGI) was 39.7 µM. The GI50 (PC-3; PC-3) was 14 µM, the CC50 (PC-3; PC-3, read-out: LC50) was 64.5 µM and the IC (TGI) (PC-3; PC-3, read-out: TGI) was 30 µM. The GI50 (NCI-H522; NCI-H522) was 1.5 µM, the CC50 (NCI-H522; NCI-H522, read-out: LC50) was 9.57 µM and the IC (TGI) (NCI-H522; NCI-H522, read-out: TGI) was 3.79 µM. The GI50 (CCRF-CEM; NCI five dose) was 2.1 µM, the CC50 (CCRF-CEM; read-out: LC50) was > 100 µM and the IC (TGI) (CCRF-CEM; read-out: TGI) was 6.14 µM. For the same compound, the “Percent Growth” value (HT29; Log10 Concentration −4.0) was −29%, the “Percent Growth” value (HT29; Log10 Concentration −5.0) was 91% and the “Percent Growth” value (HT29; Log10 Concentration −6.0) was 98%. For the same compound, the “Percent Growth” value (HT29; Log10 Concentration −7.0) was 99%, the “Percent Growth” value (HT29; Log10 Concentration −8.0) was 98% and the GI50 (HT29; Homo sapiens, HT-29) was 21.8 µM. The CC50 (HT29; Homo sapiens, HT-29, read-out: LC50) was > 100 µM, the IC (TGI) (HT29; Homo sapiens, HT-29, read-out: TGI) was 57.2 µM and the GI50 (MDA-MB-231/ATCC; MDA-MB-231) was 5.86 µM. For the same compound, the CC50 (MDA-MB-231/ATCC; MDA-MB-231, read-out: LC50) was 56.9 µM, the IC (TGI) (MDA-MB-231/ATCC; MDA-MB-231, read-out: TGI) was 21.3 µM and the “Percent Growth” value (HL-60(TB); Log10 Concentration −4.0) was −52%. The “Percent Growth” value (HL-60(TB); Log10 Concentration −5.0) was −17%, the “Percent Growth” value (HL-60(TB); Log10 Concentration −6.0) was 72% and the “Percent Growth” value (HL-60(TB); Log10 Concentration −7.0) was 83%. The “Percent Growth” value (HL-60(TB); Log10 Concentration −8.0) was 94%, the GI50 (M14; M14) was 3.71 µM and the CC50 (M14; M14, read-out: LC50) was 45.6 µM. The IC (TGI) (M14; M14, read-out: TGI) was 16.4 µM, the GI50 (HOP-92; HOP-92, HOP-92, NCI five dose) was 2.69 µM and the CC50 (HOP-92; HOP-92, read-out: LC50) was 35.8 µM. For the same compound, the IC (TGI) (HOP-92; HOP-92, read-out: TGI) was 10.1 µM, the GI50 (NCI-H226; NCI-H226) was 11.9 µM and the CC50 (NCI-H226; NCI-H226, read-out: LC50) was 89.9 µM. For the same compound, the IC (TGI) (NCI-H226; NCI-H226, read-out: TGI) was 32.7 µM, the GI50 (MDA-MB-435; MDA-MB-435) was 4.03 µM and the CC50 (MDA-MB-435; MDA-MB-435, read-out: LC50) was 45.7 µM. The IC (TGI) (MDA-MB-435; MDA-MB-435, read-out: TGI) was 16.3 µM.
